In PMC8326056 (Journal of Animal Science, 2021):
Where a name gives a salt, the structure may show the parent alone.

Columns and labels:
[1] = test system: bovine s.c. adipose tissue; test: cAMP in s.c. adipose tissue explants (Cyclic AMP XP Assay Kit); assay type: cell-based, bovine (Angus cross steers); conditions: for Effect on cAMP (in words): ligand alone; for Effect on cAMP (in words) / cAMP: 30 min; for cAMP: n = 6 steers, baseline 0.42 ± 0.06
Protocol: (§1) Fresh s.c. adipose tissue was cut into small pieces (50 to 100 mg, actual weight recorded) and i.m. adipose tissue was dissected from the LM as described previously ([Smith and Crouse, 1984]; [Miller et al., 1988]) and weighed. The s.c. and i.m. adipose samples were incubated according to 3 different sets of experimental conditions. Experiment 1: Small pieces of s.c. and i.m. adipose tissues (50 to 100 mg; 1 to 2 mm thick; [Smith and Prior, 1981]) were preincubated in 6-well tissue culture plates in a CO2/O2 incubator (NuAire model 4750 CO2 incubator, Plymouth, MN) for 30 min at 37 °C, 5% CO2 in KHB plus 5 mM glucose, 10 mM HEPES, and 0.5 mM theophylline. […] Experiment 2: The s.c. and i.m. adipose samples were preincubated in KHB plus 5 mM glucose, 10 mM HEPES, and 0.5 mM theophylline in the presence or absence of either 10 µM L-748,337 (β 3-AR antagonist) or 50 µM PRO (β-AR pan-antagonist). […] After the 30 min preincubation, either DOB (β 1-AA) or SAL (β 2-AA) was added to the culture plate wells in a concentration-dependent manner (10^–9 to 10^–4 M) for an additional 30 min. For all experiments, there were at least 3 replicate wells per treatment condition. After a total of 1-hr incubation, the adipose samples were homogenized in 1 mL cell lysis buffer (Cell Signaling Technology, Danvers, MA) with 1 mM phenymethylsulfony fluoride, and centrifuged at 14,000 × g for 30 min to remove tissue debris. The supernatant fractions were stored at −80 °C until subsequent analyses were performed.
(§2) The concentration of cAMP was determined based on the principle of competitive binding using the Cyclic AMP XP Assay Kit according to the manufacturer’s instructions. Cytosolic extracts from the adipose explants were co-incubated at room temperature for 3 hr in 96-well plates with the HRP-linked cAMP substrate coated onto an immobilized rabbit monoclonal cAMP antibody using a horizontal orbital plate shaker. After the reaction, color development was measured at 450 nm using an Epoch microplate reader (Biotek Instruments, Winooski, VT). All samples were analyzed in duplicate. A standard curve and cAMP concentrations were calculated using GrapPad Prism 6.04 software (GraphPad Software Inc., San Diego, CA).

[2] = test system: bovine i.m. adipose tissue; test: cAMP in i.m. adipose tissue explants (Cyclic AMP XP Assay Kit); assay type: cell-based, bovine (Angus cross steers); conditions: for Effect on cAMP (in words): ligand alone; for Effect on cAMP (in words) / cAMP: 30 min; for cAMP: i.m., mean ± SEM, n = 6 steers, baseline 0.64 ± 0.19
Protocol: as §1, §2

[3] = molecular target: T1, bovine β 1-AR (Bos taurus, UniProt Q9TT96); test: cAMP induction in CHO cells transfected with bovine β 1-AR construct (LANCE cAMP kit); assay type: cell-based; conditions: 45 min, 5 mM theophylline, ND = cAMP not detected or insufficient for EC50
T1 construct: expressed in transfected cells; host or cells: Chinese hamster ovary (CHO) cells, pcDNA3.1+ vector
Protocol: (§3) Chinese Hamster Overy cells were transfected with either the bovine β 1-, β 2-, or β 3-AR constructs in pcDNA3.1+. Expression of the β-AR was confirmed by polymerase chain reaction (PCR). Thereafter, cells were grown in DMEM/Ham’s F12 media with 10% FBS and 1% penicillin/streptomycin at 37 °C under 5% CO2. Opti-plates (Perkin Elmer, Waltham, MA) were used for all experiments. For each experiment, cells were plated into 96-well tissue culture plates at 60,000 cells per well in a volume of 100 µL media. Cells were grown for 48 hr after plating prior to ligand addition and determination of cAMP.
(§4) All samples and standards were tested in duplicate for each repetition, and 4 repetitions per cell line were performed for each potential ligand tested. Controls included no treatment (media alone), 5 mM theophylline alone (an inhibitor of phosphodiesterase), 0.1 % DMSO alone, and water alone. None of the controls differed from media alone and are thus not reported. A volume of media equal to the volume of test material to be added was removed from the well just prior to stimulation. Theophylline was added in a volume of 25 µL to obtain a final concentration of 5 mM and each test molecule was delivered in 10 µL. Cells were returned to 37 °C and allowed to incubate for 45 min before media was removed and the cells lysed in 38 µL lysis buffer A. The LANCE cAMP detection kit (AD0262E) was purchased from Perkin Elmer. The LANCE assay instructions were followed for a 40 µL reaction volume with 15 µL of cell lysate. The reaction was incubated for 20 hr prior to measuring fluorescence. A standard curve was generated with increasing concentrations of cAMP, and the linear portion of the curve was used to calculate sample cAMP concentrations.

[4] = molecular target: T2, bovine β 3-AR (Bos taurus, UniProt P46626); test: cAMP induction in CHO cells transfected with bovine β 3-AR construct (LANCE cAMP kit); assay type: cell-based; conditions: 45 min, 5 mM theophylline
T2 construct: expressed in transfected cells; host or cells: Chinese hamster ovary (CHO) cells, pcDNA3.1+ vector
Protocol: as §3, §4

[5] = test system: bovine s.c. adipose tissue; test: Lipolysis: glycerol release, s.c. adipose tissue explants; assay type: cell-based, bovine (Angus cross steers); conditions: for Glycerol: s.c., mean ± SEM, baseline 50.0 ± 12.8
[6] = test system: bovine i.m. adipose tissue; test: Lipolysis: glycerol release, i.m. adipose tissue explants; assay type: cell-based, bovine (Angus cross steers); conditions: 30 min; for Effect on glycerol release (in words): i.m. adipose tissue; for Glycerol: i.m., mean ± SEM, baseline 48.6 ± 10.3
[7] = test system: bovine s.c. adipose tissue; test: Lipolysis: NEFA release, s.c. adipose tissue explants; assay type: cell-based, bovine (Angus cross steers); conditions: for Effect on NEFA release (in words) / NEFA: 30 min; for NEFA: s.c., mean ± SEM, baseline 0.99 ± 0.40
[8] = test system: bovine i.m. adipose tissue; test: Lipolysis: NEFA release, i.m. adipose tissue explants; assay type: cell-based, bovine (Angus cross steers); conditions: 30 min; for Effect on NEFA release (in words): i.m. adipose tissue; for NEFA: i.m., mean ± SEM, baseline 0.65 ± 0.20
[9] = s.c., 10^–6 M ligand, mean ± SEM
[10] = s.c., 10^–7 M ligand, mean ± SEM
[11] = s.c., 10^–8 M ligand, mean ± SEM
[12] = Bos taurus, sc, 0.5 h, s.c. adipose tissue, 30 min at 37 °C, n = 5

T2 sequence (P46626 whole entry): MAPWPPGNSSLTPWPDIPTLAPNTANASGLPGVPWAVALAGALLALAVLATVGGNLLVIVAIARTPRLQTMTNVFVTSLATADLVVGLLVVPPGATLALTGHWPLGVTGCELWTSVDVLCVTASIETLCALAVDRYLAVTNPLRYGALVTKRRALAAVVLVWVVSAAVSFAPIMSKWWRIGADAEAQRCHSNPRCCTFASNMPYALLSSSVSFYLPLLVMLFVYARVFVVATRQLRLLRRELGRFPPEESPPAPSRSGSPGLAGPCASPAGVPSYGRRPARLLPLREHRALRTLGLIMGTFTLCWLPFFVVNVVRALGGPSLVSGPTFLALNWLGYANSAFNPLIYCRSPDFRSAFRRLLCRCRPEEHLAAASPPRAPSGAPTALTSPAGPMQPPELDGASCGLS
T1 sequence (Q9TT96 whole entry): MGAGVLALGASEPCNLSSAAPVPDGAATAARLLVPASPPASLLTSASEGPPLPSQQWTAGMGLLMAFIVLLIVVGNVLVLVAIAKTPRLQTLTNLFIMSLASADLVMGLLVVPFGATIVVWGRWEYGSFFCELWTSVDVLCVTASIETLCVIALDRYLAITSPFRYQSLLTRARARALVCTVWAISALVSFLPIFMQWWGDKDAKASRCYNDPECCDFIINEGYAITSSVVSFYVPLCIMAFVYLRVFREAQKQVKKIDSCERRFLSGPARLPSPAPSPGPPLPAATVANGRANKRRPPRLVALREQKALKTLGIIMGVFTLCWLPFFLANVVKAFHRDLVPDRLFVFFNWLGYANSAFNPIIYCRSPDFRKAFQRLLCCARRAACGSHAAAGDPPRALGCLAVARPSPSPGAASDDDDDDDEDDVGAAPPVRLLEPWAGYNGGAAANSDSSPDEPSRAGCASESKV

Row | Compound | Effect on cAMP (in words) ([1]; s.c. adipose tissue) | Effect on cAMP (in words) ([2]; i.m. adipose tissue) | EC50 [4] | cAMP [1, 9] | cAMP [1, 10] | cAMP [1, 11] | cAMP ([2]; 10^–6 M ligand) | cAMP ([2]; 10^–7 M ligand) | cAMP ([2]; 10^–8 M ligand) | Glycerol ([5]; 10^–6 M ligand, 30 min) | Glycerol ([5]; 10^–7 M ligand, 30 min) | Glycerol ([5]; 10^–8 M ligand, 30 min) | Effect on glycerol release (in words) [6] | Glycerol ([6]; 10^–6 M ligand) | Glycerol ([6]; 10^–7 M ligand) | Glycerol ([6]; 10^–8 M ligand) | Effect on NEFA release (in words) ([7]; s.c. adipose tissue) | NEFA ([7]; 10^–6 M ligand) | NEFA ([7]; 10^–7 M ligand) | Effect on NEFA release (in words) [8] | also measured
1 | CC(C)(C)NCC(O)c1ccc(O)c(CO)c1 (stereo not drawn) [SAL, salbutamol sulfate] | increased cAMP production in s.c. adipose tissue in a dose-dependent manner | without effect in i.m. adipose tissue |  |  |  |  |  |  |  |  |  |  |  |  |  |  |  |  |  |  | 
2 | CC(CCc1ccc(O)cc1)NCC(O)c1ccc(O)cc1.Cl (racemic) [RAC, ractopamine hydrochloride] | Neither RAC nor ZIL (10^–8 to 10^–6 M) affected cAMP concentrations | Neither RAC nor ZIL (10^–8 to 10^–6 M) affected cAMP concentrations | 0.024 µM | 0.44 ± 0.14 pmol/100 mg tissue | 0.38 ± 0.08 pmol/100 mg tissue | 0.39 ± 0.09 pmol/100 mg tissue | 0.70 ± 0.18 pmol/100 mg tissue | 0.76 ± 0.18 pmol/100 mg tissue | 0.86 ± 0.22 pmol/100 mg tissue | 63.3 ± 9.20 nmol/100 mg tissue | 52.6 ± 11.1 nmol/100 mg tissue | 50.3 ± 7.60 nmol/100 mg tissue | Neither RAC nor ZIL affected cAMP production or glycerol or NEFA release | 42.6 ± 11.4 nmol/100 mg tissue | 81.7 ± 25.5 nmol/100 mg tissue | 52.4 ± 16.4 nmol/100 mg tissue | Neither RAC nor ZIL affected cAMP production or glycerol or NEFA release | 1.06 ± 0.13 µmol/100 mg tissue | 1.20 ± 0.21 µmol/100 mg tissue | Neither RAC nor ZIL affected cAMP production or glycerol or NEFA release | EC50 [3]: 2 nM; NEFA ([7]; 10^–8 M ligand): 1.10 ± 0.15 µmol/100 mg tissue; NEFA ([8]; 10^–6 M ligand): 0.56 ± 0.13 µmol/100 mg tissue; NEFA ([8]; 10^–7 M ligand): 1.18 ± 0.50 µmol/100 mg tissue; NEFA ([8]; 10^–8 M ligand): 0.75 ± 0.21 µmol/100 mg tissue
3 | CC(C)N[C@@H]1CCn2c(=O)[nH]c3cccc(c32)[C@H]1O (racemic) [ZIL, zilpaterol hydrochloride] | Neither RAC nor ZIL (10^–8 to 10^–6 M) affected cAMP concentrations | Neither RAC nor ZIL (10^–8 to 10^–6 M) affected cAMP concentrations | 9.1 µM | 0.62 ± 0.27 pmol/100 mg tissue | 0.61 ± 0.27 pmol/100 mg tissue | 0.76 ± 0.37 pmol/100 mg tissue | 0.78 ± 0.39 pmol/100 mg tissue | 0.51 ± 0.13 pmol/100 mg tissue | 0.79 ± 0.30 pmol/100 mg tissue | 65.9 ± 12.6 nmol/100 mg tissue | 59.3 ± 15.4 nmol/100 mg tissue | 54.8 ± 8.0 nmol/100 mg tissue | Neither RAC nor ZIL affected cAMP production or glycerol or NEFA release | 46.0 ± 14.5 nmol/100 mg tissue | 48.6 ± 13.7 nmol/100 mg tissue | 67.4 ± 21.6 nmol/100 mg tissue | Neither RAC nor ZIL affected cAMP production or glycerol or NEFA release | 1.17 ± 0.35 µmol/100 mg tissue | 1.25 ± 0.31 µmol/100 mg tissue | Neither RAC nor ZIL affected cAMP production or glycerol or NEFA release | Induction of cAMP (EC50), β 1-Construct [3]: no detectible cAMP response; NEFA ([7]; 10^–8 M ligand): 1.06 ± 0.30 µmol/100 mg tissue; NEFA ([8]; 10^–6 M ligand): 0.50 ± 0.16 µmol/100 mg tissue; NEFA ([8]; 10^–7 M ligand): 0.91 ± 0.30 µmol/100 mg tissue; NEFA ([8]; 10^–8 M ligand): 0.78 ± 0.28 µmol/100 mg tissue
4 | CC(CCc1ccc(O)cc1)NCCc1ccc(O)c(O)c1 (stereo not drawn) [DOB, dobutamine hydrochloride] | increased cAMP production in s.c. adipose tissue in a dose-dependent manner | without effect in i.m. adipose tissue |  |  |  |  |  |  |  |  |  |  |  |  |  |  |  |  |  |  | 
5 | C[C@H](Cc1ccc(OCC(=O)O)cc1)NC[C@H](O)c1cccc(Cl)c1 [BRL-37344] | Neither BRL-37344 nor LUB influenced cAMP or NEFA concentrations |  |  |  |  |  |  |  |  |  |  |  |  |  |  |  | Neither BRL-37344 nor LUB influenced cAMP or NEFA concentrations |  |  | not influenced | Adipose tissue lipolytic sensitivity (−logEC50) to β-AR ligands, s.c. ([1]; s.c., cAMP readout, mean ± SEM, n = 12 cattle, combinations: preincubation with 1 µM LUB ± 10 µM L-748,337): 7.00 ± 3.27; cAMP concentration compared with explants treated with the same concentrations of LUB ([2]; i.m. adipose tissue, 10^–6 and 10^–5 M, P < 0.05): significantly less
6 | CC(C)NCC(O)c1ccc(O)c(O)c1 (stereo not drawn) [ISO, isoproterenol hydrochloride] | increased cAMP accumulation | not dose-dependent |  |  |  |  |  |  |  |  |  |  | had no effect |  |  |  | increased NEFA release in a dose-dependent manner |  |  | failed to elicit a similar response curve | EC50 ([1]; Bos taurus, sc, 0.5 h, s.c. adipose tissue, 30 min at 37 °C, n = 5, read-out: EC50, cAMP accumulation): 220 nM; Concentration at which the cAMP response plateaus ([1]; s.c. adipose tissue): 10^–6 M; EC50 [5, 12]: 5.1 µM; Effect on glycerol release (in words) ([5]; s.c. adipose tissue, 30 min): increased glycerol release in a concentration-dependent manner; EC50 [7, 12]: 180 nM
